Test results as given in patent EP0638566B1, “5-Aminoflavone derivatives, their preparation and their use as antibacterial, anti-estrogenic and/or antitumor agent” (KYOWA HAKKO KOGYO CO., LTD., priority 1993, dated 1995).

Legend:
[1] = system: estrogen-dependent human mammary cancer Br-10; assay: Antitumor effects against Br-10 tumor transplanted in nude mice; assay type: in vivo, female BALB/c-nu/nu mice; settings: dose 25 mg/kg oral, 5 days per week for two to four weeks; judgement day 18
Text: Antitumor effects against estrogen-dependent human mammary cancer Br-10
The tumor fragment (2mm x 2mm x 2mm) of human hormone dependent mammary cancer Br-10 was transplanted subcutaneously in the flank of female BALB/c-nu/nu mice (Nihon Crea), 7 to 9 weeks age. […] 3 to 4 Weeks after transplantation, mice the tumor volume of which increased to 30 to 150 mm^3 were selected, and the test compounds were orally administered repeatedly to the groups (5 animals per group) for 5 days per a week, for total two to four weeks. Estradiol propionate was additionally administered on the date of initial administration of the test compounds and 14 days after the administration. Length and breadth of the tumor were determined every day, and the tumor volumes were calculated by means of ellipsoid approximation according to the above equation. The tumor volume at initial administration (Vo) and on the day of judgement (V) was calculated, and the tumor growth rate (V/Vo) was calculated. T/C value was obtained as the ratio of V/Vo value of treated group relative to that of control group.

[2] = system: uterus weight of immature mice; assay: Effect against the increase in uterus weight of immature mice; assay type: in vivo, female BALB/c mice; settings: dose 50 mg/kg, oral, three days, uteri isolated after four days
Method: The effect against the increase in uterus weight of immature mice
Immature female BALB/c mice, 4 weeks age, were divided into two groups and 50 µg of estradiol was subcutaneously administered to the animals of one group in the chest. The test compounds were repeatedly administered orally to each group (8 animals per group) for three days since the date of estradiol administration. After four days, the uteri were isolated and the weight thereof was measured.
In Table 2, "estradiol (-)" represents an estradiol-untreated group and "estradiol (+)" represents an estradiol-treated group.

[3] = system: Human mammary cancer MCF-7 cell; assay: Human mammary cancer MCF-7 cell growth inhibition test (neutral red); assay type: cell-based; settings: MCF7, MCF-7 cells, medium with 10^-8M estradiol, 72 hours, neutral red, absorbance at 550 nm, read-out: IC50
Method: Human mammary cancer MCF-7 cell growth inhibition test
Each 0.1 ml of MCF-7 cells which had been prepared to 5 x 10^4/ml using a medium (referred to as Medium B hereinafter) prepared by adding 10% bovine fetal serum, 10^-8M estradiol (manufactured by Sigma), 100 units/ml penicillin and 100 µg/ml streptomycin to RPMI1640 medium was distributed in each well of 96 well-microtiter plate. […] Supernatant was removed, each 0.1 ml of Medium B containing 0.02% neutral red was added to the residue, the mixture was cultured at 37 °C for 1 hour in a CO2 gas incubator and the cells were stained by neutral red dye. Supernatant was removed and the residue was washed once with a physiological saline. Then, the dye was extracted with 0.001N hydrochloric acid/30% ethanol and the absorbance at 550 nm was determined with a microplatereader.

[4] = system: estrogen-dependent human mammary cancer MCF-7; assay: Antitumor effects against MCF-7 tumor transplanted in nude mice; assay type: in vivo, female BALB/c-nu/nu mice; settings: Mus musculus, MCF7; dose 50 mg/kg oral, 5 days per week for two weeks; judgement day 18; read-out: T/C
Text: Antitumor effects against estrogen-dependent human mammary cancer MCF-7
The tumor fragment (2mm x 2mm x 2mm) of human hormone dependent mammary cancer MCF-7 was transplanted subcutaneously in the flank of female BALB/c-nu/nu mice (Nihon Crea), 7 to 9 weeks age. […] 3 to 4 Weeks after transplantation, mice of the tumor volume of 25 to 200 mm^3 were selected, and the test compounds were orally administered repeatedly to the groups (5 animals per group) for 5 days per a week, for total two weeks. In addition, estradiol propionate was administered again on the date of initial administration of the test compounds. Length and width of the tumor were determined every day, and the tumor volumes were calculated by means of ellipsoid approximation according to the following equation: […] [formula] The tumor volume at initial administration (Vo) and on the day of judgement (V) was calculated, and the tumor growth rate (V/Vo) was calculated. T/C value was obtained as the ratio of V/Vo value of treated group relative to that of control group.

IC50 [3]: 13 nM
SMILES: Cc1c(F)c(N)c2c(=O)cc(-c3ccc(N)c(F)c3)oc2c1F [Compound 1, 5-Amino-2-(4-amino-3-fluorophenyl)-6,8-difluoro-7-methyl-4H-1-benzopyran-4-one]
T/C [1]: 0.12 | Weight of uterus ([2]; estradiol (+) (50 µg estradiol s.c.)): 38 mg | Weight of uterus ([2]; estradiol (-) (estradiol-untreated group)): 17 mg | response vs control in vivo at 50 mg/kg [4]: 6.4%
